Results as given in PMC9388863, “Congeners-Specific Intestinal Absorption Of Microcystins In An In Vitro 3D Human Intestinal Epithelium: The Role Of Influx/Efflux Transporters” (Frontiers in Toxicology, 2022).
*1 amine or outer side, *2 acyl side, *3 side chain or, on linkers, in order; H or OH if unused. Where a SMILES comes first, the peptide text is derived from it. Bridges are numbered along the chain shown (N, C = ends). [ ]: non-standard residue; d: D form. Adda = CO[C@@H](Cc1ccccc1)[C@@H](C)/C=C(C)/C=C/[C@H](N[*:1])[C@H](C)C(=O)[*:2]; dAsp(3S-Me) = C[C@H](C(=O)[*:3])[C@@H](N[*:1])C(=O)[*:2]; d(γGlu) = O=C(O)[C@@H](CCC(=O)[*:2])N[*:1]; NMeDha = C=C(NC)C(=O)O

Legend:
[1] = target: T1, P-gp (Homo sapiens, UniProt P08183); assay: Transport with/without P-gp inhibitor verapamil in EpiIntestinal™; format: in vitro ADME
T1 construct: EpiIntestinal™ tissues express all the influx and efflux transporters that are considered relevant; host or cells: EpiIntestinal™ 3D reconstructed human small-intestinal epithelium (normal human primary cells, single donor)
T1 sequence (P08183 whole entry): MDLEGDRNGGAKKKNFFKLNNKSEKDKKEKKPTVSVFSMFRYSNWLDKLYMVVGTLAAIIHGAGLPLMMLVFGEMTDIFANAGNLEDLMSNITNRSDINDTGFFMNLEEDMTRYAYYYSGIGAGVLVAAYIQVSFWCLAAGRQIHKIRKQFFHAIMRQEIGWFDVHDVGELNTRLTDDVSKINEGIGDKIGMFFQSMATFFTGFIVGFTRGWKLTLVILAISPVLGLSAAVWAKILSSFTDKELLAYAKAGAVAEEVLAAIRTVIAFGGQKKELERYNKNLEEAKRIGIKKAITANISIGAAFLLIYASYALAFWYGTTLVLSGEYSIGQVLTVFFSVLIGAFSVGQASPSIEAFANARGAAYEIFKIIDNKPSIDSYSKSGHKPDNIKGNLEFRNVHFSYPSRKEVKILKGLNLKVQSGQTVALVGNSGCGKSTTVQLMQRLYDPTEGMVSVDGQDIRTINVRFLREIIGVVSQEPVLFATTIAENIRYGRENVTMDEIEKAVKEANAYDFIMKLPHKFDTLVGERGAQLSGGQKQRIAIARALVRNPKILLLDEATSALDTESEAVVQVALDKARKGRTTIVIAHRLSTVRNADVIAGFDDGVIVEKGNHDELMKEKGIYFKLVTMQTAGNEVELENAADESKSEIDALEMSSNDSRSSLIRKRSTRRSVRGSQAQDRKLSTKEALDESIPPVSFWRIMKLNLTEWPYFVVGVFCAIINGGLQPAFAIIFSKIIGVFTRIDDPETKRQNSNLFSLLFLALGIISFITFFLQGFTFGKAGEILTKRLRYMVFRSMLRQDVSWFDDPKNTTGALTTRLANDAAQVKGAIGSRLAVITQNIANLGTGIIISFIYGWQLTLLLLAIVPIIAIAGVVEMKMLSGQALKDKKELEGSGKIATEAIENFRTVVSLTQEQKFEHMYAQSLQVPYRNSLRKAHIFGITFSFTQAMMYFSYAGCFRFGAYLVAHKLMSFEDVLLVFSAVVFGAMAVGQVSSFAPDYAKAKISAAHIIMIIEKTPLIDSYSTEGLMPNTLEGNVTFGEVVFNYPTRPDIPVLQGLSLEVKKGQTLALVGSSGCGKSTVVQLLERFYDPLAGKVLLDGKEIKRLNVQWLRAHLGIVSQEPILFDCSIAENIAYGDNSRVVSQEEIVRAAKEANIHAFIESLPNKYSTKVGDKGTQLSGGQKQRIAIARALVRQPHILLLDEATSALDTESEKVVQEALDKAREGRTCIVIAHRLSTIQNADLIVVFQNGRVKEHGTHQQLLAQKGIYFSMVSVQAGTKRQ

[2] = tested on: EpiIntestinal™ 3D human reconstructed intestinal epithelium; format: in vitro ADME
[3] = tested on: Caco-2 cell monolayers; settings: cited from earlier work
[4] = tested on: EpiIntestinal™ tissues; format: in vitro ADME, human
[5] = tested on: EpiIntestinal™ tissues; format: cell-based, human
[6] = target: T2, MRP2 (Homo sapiens, UniProt Q92887); format: in vitro ADME
T2 construct: EpiIntestinal™ tissues express all the influx and efflux transporters that are considered relevant; host or cells: EpiIntestinal™ 3D reconstructed human small-intestinal epithelium (normal human primary cells, single donor)
T2 sequence (Q92887 whole entry): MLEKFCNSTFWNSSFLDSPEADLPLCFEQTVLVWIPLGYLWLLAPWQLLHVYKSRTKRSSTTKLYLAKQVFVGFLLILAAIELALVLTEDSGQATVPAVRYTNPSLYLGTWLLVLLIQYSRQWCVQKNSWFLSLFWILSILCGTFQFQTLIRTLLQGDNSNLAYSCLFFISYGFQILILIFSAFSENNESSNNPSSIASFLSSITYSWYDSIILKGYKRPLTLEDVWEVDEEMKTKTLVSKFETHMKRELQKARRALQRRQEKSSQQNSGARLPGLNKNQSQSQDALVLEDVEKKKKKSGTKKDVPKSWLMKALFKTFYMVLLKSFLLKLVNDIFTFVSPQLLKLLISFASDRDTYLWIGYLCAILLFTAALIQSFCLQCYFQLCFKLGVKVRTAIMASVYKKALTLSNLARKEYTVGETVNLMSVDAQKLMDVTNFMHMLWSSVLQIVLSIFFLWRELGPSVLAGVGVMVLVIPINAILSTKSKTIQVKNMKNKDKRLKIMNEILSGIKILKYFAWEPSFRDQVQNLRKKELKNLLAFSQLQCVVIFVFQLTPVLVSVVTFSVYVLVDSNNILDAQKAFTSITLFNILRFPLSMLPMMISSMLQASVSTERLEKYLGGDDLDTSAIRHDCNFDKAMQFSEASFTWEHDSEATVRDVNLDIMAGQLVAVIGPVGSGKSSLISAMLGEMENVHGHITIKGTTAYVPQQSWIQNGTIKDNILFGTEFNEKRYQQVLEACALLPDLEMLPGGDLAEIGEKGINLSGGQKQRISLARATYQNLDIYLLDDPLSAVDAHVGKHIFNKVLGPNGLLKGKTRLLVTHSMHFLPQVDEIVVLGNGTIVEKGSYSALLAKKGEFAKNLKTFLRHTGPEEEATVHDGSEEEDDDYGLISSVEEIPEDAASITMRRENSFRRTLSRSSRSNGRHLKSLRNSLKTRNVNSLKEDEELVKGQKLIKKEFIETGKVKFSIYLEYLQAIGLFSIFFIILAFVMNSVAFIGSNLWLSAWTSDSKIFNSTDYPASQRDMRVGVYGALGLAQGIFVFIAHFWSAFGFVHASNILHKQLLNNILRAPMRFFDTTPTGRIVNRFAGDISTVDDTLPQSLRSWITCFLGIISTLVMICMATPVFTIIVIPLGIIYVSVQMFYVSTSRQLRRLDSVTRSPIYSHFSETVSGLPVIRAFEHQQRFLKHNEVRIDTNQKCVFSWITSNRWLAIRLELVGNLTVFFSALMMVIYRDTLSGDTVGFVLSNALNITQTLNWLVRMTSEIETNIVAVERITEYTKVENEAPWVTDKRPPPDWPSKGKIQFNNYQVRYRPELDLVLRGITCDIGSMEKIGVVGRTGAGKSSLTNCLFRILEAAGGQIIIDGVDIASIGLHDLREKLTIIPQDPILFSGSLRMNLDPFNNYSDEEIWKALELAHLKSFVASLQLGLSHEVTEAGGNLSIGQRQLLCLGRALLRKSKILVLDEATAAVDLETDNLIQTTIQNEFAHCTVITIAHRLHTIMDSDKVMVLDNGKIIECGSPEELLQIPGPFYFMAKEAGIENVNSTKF

[7] = tested on: BCRP; assay: in vitro; settings: human, not told
[8] = target: T2, MRP2; settings: cited from earlier work
[9] = target: OATP 2B1 (Homo sapiens, UniProt O94956); format: in vitro ADME
Sequence of OATP 2B1 (O94956 whole entry): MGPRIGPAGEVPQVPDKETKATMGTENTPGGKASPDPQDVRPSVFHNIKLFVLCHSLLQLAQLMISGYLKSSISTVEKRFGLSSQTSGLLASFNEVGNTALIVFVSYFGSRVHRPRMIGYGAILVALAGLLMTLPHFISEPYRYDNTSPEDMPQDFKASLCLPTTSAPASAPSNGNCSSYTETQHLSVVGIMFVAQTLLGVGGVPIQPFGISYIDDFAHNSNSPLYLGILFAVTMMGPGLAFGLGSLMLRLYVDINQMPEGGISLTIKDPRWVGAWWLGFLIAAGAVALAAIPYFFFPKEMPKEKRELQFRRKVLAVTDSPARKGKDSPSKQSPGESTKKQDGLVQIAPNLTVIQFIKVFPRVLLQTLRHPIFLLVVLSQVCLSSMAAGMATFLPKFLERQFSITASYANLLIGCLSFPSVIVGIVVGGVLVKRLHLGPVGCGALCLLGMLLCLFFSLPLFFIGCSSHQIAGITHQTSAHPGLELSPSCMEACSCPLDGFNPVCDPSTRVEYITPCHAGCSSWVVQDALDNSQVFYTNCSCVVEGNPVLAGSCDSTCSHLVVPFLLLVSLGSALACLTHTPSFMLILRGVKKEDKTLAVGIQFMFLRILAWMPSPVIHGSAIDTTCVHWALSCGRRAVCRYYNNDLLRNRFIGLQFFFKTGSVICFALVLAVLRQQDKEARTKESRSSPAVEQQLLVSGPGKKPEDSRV

Compound	effect of co-administration of verapamil (P-gp inhibitor) on MC transport [1]	absorption (parent compound detected in the BL compartment), % of the administered dose [2]	amount recovered in the BL compartment at 4 h, percentage of the applied dose [2]	dependence of Papp on the donor concentration [2]	toxin reaching the basolateral compartment [3]	Efflux ratio (ER), Papp BL-AP / Papp AP-BL [4]	toxicity, measured as barrier integrity with LY [5]	effect of cyclosporin on MC transport [6]	efflux ratio [7]	amount recovered in the cellular pellet, % of the administered dose [2]	transport (efflux) by MRP2 [8]	effect of pravastatin (OATP 2B1 inhibitor) on MC uptake [9]	permeability coefficient Papp (AP-BL), time course [2]	time at which toxin was detectable in the receptor fluid [2]
C=C1C(=O)N[C@H](C)C(=O)N[C@@H](CC(C)C)C(=O)N[C@@H](C(=O)O)[C@H](C)C(=O)N[C@@H](CCCNC(=N)N)C(=O)N[C@@H](/C=C/C(C)=C/[C@H](C)[C@H](Cc2ccccc2)OC)[C@H](C)C(=O)N[C@@H](C(=O)O)CCC(=O)N1C [MC-LR, Microcystin-LR] (R[Adda][d(γGlu)][NMeDha][dA]L[dAsp(3S-Me)]-OH; lactam N-7)	not affected	around 5%	4.6%	independent on the donor concentrations	0.3–1.35%	3.65	no toxicity	significantly decreased the efflux						
C[C@]12CC[C@H]3[C@@H](CCC4=CC(=O)CC[C@@]43C)[C@@H]1CC[C@@H]2O [testosterone, Testosterone]									1.95					
Microcystin-LF [MC-LF]				dose dependent increase in permeability			no toxicity			less than 1%	transported more rapidly than MC-LR and–RR			
Microcystin-LW [MC-LW]	not affected			dose dependent increase in permeability		2.65	no toxicity	not reaching the statistical significance		less than 1%		slightly decreased		
Microcystin-RR [MC-RR]		around 5%	3.6%	independent on the donor concentrations			no toxicity						5.73	30 min
Microcystin-YR [MC-YR]		around 5%	4.3%	independent on the donor concentrations			no toxicity							
